# Where two headings read alike, the source gives them in different places.
# Legend:
# [1] = system: rats injected with kainic acid at basal forebrain; test: Promotion of recovery from retention deficits by repeated learning (passive avoidance); assay type: in vivo, rat (male Sprague-Dawley); design: key: latency in seconds to enter dark chamber, capped at 300 s; details: Table 9, i.p. 5 mg/kg before each trial
# Protocol: (§1) Effects of the derivative on the behavioral parameters of rats injected with kainic acid at basal forebrain were characterized with regard to both prevention against deficits in retention of passive avoidance learning and promotion of recovery from damaged state by repeated learning.
# (§2) Male Sprague-Dawley rats (9-10 weeks of age, 200-250 g of weight) were anesthetized with Nembutal (50 mg/kg, i.p.) and placed in a stereotaxic apparatus. Bilateral lesions of the ventral globus pallidus were made by direct stereotaxic application (0.7 mm posterior to bregma, 2.7 mm lateral to the midline, and 7.0 mm ventral to the brain surface) of 0.25 μg of kainic acid in 1 μl of PBS (pH 7.4) to prepare disordered models. Controls were sham-operated rats injected with PBS in place of kainic acid solution.
# (§3) Passive avoidance procedures were performed by using a two chambered step-through passive avoidance apparatus with a guillotine door. A 3 mA scrambled shock was delivered to the dark floor grids for 3 seconds as a punishment. Habituation trial was conducted prior to the acquisition trial. Each rats were placed in the illuminated chamber and the guillotine door was raised after 10 seconds. As soon as the rats entered into the dark chamber, the door was lowered. The rats were removed after 10 seconds and returned to their home cages. […] The acquisition trial was performed similarly to the habituation trial. In the former case, a rat was placed in the illuminated room and the door was opened after 10 seconds. The door was shut immediately after the rat entered into the dark room, a scrambled foot shock was applied, and then the animal was removed. The latency to enter the dark chamber after opening the door was recorded for 300 seconds in the retention of passive avoidance. The latency exceeding 300 seconds was calculated as 300 seconds.
# The promoting effects on the recovery by repeated training from the damaged state of retention were acessed by using 30 rats injected with kainic acid. Rats were subjected to the acquisition trial 10 days after the operation. The rats were equally divided into 3 groups after 24 hours and injected intrapenitroneally with 5 mg/kg of 4-n-propylcatechol and the derivative (A) (R=--CO--, R=H, R2 =n-propyl) respectively as a saline solution. The remaining 10 rats were intraperitoneally injected with saline alone. The first retention trial was carried out two days after the injection. Rats which entered into the dark chamber within 30 seconds were punished by the scrambled foot shock as a training. On the next day, all animals were administered again the same amount of test derivative or saline. These animals were subjected to the second retention trial two days after the second injection.
# Retention trials, punishments and additional administrations were repeated as mentioned above four times in all.
# NGF = NGF production in the central nervous system of normal rats by intraperitoneal injection (NGF content of brain tissue, ELISA); assay type: in vivo, rat (Wistar male); details: Table 7, i.p., three times every other day; for NGF content after 48 hr.: 48 hours after final administration; for NGF content after 7 days: 7 days after final administration
# Protocol: The derivative (A), e.g. R=Two H, R1 =H and R2 =n-propyl (hereinafter referred to as 4-n-propylcatechol), was administered to normal rats by intraperitoneal injection, and the effect was examined.
# 4-n-Propylcatechol was administered by intraperitoneal injection 4 times every other day in a dosage of 5 mg/kg. The rats were killed two days after the final administration. The NGF content of each parts in brain was measured. The content was compared with those of control group which was administered saline alone.
# A variety of the derivative was administered three times every other day. The content of NGF in the forebrain after 48 hours and 7 days from the final administration was measured and illustrated in Table 7.
# Wistar male rats (9-10-week old, 200-250 g of weight) were intraperitoneally injected with the test derivative in a volume of 0.5 ml as a saline solution, emulsion or suspension. Dose and administration times were the same as above. The rats were killed by a hard spinal blow two days after the final administration. Each parts of brain were dissected and subjected to the following treatment under ice cooling.
# Each parts of brain were weighed and homogenized for 30 strokes by a Dounce type homogenizer in a homogenization buffer (0.1 M Tris-HCl, containing 2% bovine serum albumin fraction V, 2% gelatin, 1.0 M NaCl, 0.02% NaN3, 2 mM EDTA and 2.6 kiu/ml of aprotinin, pH 7.6) at a concentration of 10% (W/V) (only septum 5% (W/V)). Each homogenate was centrifuged at 100,000 xg for 10 minutes, and 50 μl of supernatant was added with the same amount of a dilution buffer (0.1 M Tris-HCl containing 2% bovine serum albumin fraction V, 0.05% NaN3 and 20 mM CaCl2, pH 7.6). Determination was conducted in accordance with a method of S. Furukawa et al. by using a high sensitivity ELISA system on 8-NGF which was described in J. Neurochem., 40, 734-744 (1983). Lower limit of determination is 0.25 pg/ml. Data are indicated as a mean value ±SE on the NGF content of tissue (pg/mg wet tissue) of five rats.
# Acute toxicity (LD50) = details: mouse, in vivo
# Protocol: The catechol derivative having normal type saturated lower alkyl groups on the ring was administered by intravenous injection (i.v.), intraperitoneal injection (i.p.) or oral route (p.o.) to male ddy mice of 4-week old. The LD50 values (mg/kg) were measured by an ordinary method.
# [2] = system: rats injected with kainic acid at basal forebrain / sham-operated rats; test: Retention of passive avoidance learning: prevention of retention deficits; assay type: in vivo, rat (male Sprague-Dawley); details: Table 8, i.p. 5 mg/kg on days 1, 4, 7
# Protocol: as §1, §2, §3
# The preventive effects on deficits in retention were estimated by using 60 rats. Thirty rats were injected with kainic acid and other 30 rats were sham-operated with PBS.
# Each groups of animals were equally divided into three groups which were received intraperitoneally 5 mg/kg of the derivative (A) (R=2H, R1 =H, R2 =n-propyl, that is, 4-n-propylcatechol), derivative A (R=--CO--, R1 =H, R2 =n-propyl) and saline respectively as a saline solution on one, four and seven days after the operation.
# Table 8 illustrates the results obtained by conducting the acquisition trial 10 days after the operation and the retention test after 24 hours.
# [3] = system: production and secretion of NGF in brain astroglial cells; test: Promoting activity for the production and secretion of NGF in brain astroglial cells of mouse (ELISA); details: 24 h
# Protocol: The experiment was performed by inducing the astroglial cells from mouse forebrain to culture system according to the procedures of S. Furukawa et al. which is described in Biochem. Biophys. Res. Commun., 136, 57-63 (1986).
# That is, forebrains of 8-day old mice were dissected out and cut into small pieces. […] Cells and cell clamps were recovered by centrifugation at 200 xg for 5 minutes. They were cultured in Dulbecco modified Eagle's medium (a product of Gibco Co. hereinafter abbreviated as DMEM) containing 10% of fetal calf serum, […] of penicillin, and 50 μg/ml of streptomycin, for 10 to 14 days with medium changes every 3 days. After completing confluency, the cells were dissociated by trypsin treatment and recultured in new culture flasks. This procedure was repeated further twice and more. […] The cells will hereinafter be referred to as astroglial cells.
# Astroglial cells were innoculated in 24-well plates having a well surface area of 2.1 cm^2 (a product of Falcon Co.) at a cell density of about 3×10^4 cells/well and cultured for 3 days in DMEM . medium supplemented with 10% of fetal calf serum. After completing confluency about 10^7 cells/well), the medium was changed to DMEM medium (0.5 ml/well) supplemented with 0.5% of bovine serum albumin ((fraction V) and cultured for 3 days. The culture was further continued with medium changes every 3 days. After cells were practically synchronized in the quiscent stage, the medium was changed to 0.5 ml of the medium supplemented with 0.5% of bovine serum albumin and containing a prescribed concentration of test sample as illustrated in Tables. […] Data are expressed as fold increase in NGF content over that in the absence of the test sample. […] Data are presented as means ±SE of four determinations.
# [4] = system: production and secretion of NGF on L-M cells; test: Promoting action for the production and secretion of NGF on L-M cells of mouse (ELISA); assay type: cell-based; details: Mus musculus, 24 h, read-out: Ratio of NGF increase
# From the text: Catecholamines have also been found in a relatively high concentration to accelerate these functions without being mediated by adrenergic receptors [Y. Furukawa et al., J. Biol. Chem., 261, 6039-6047 (1986)].
# The compound having a high activity in Table 1, that is, the catechol derivative having a n-alkyl group in the 3 or 4 position on the ring has been observed an acute cell toxicity in higher concentrations. The toxicity was considered the result of two hydroxyl groups in the catechol structure. Then the hydroxyl groups were esterified or etherified and the resulting derivative was examined the effect on the activity for the production and secretion of NGF.
# The experiment was performed according to the procedures of Y. Furukawa et al. which is described in J. Bis Chem., 261, 6039-6047 (1986).
# The medium was cultured for 3 days at a temperature of 37° C. After completing the confluency (about 10^6 cells/well), the medium was changed to Medium 199 (0.5 ml/well) containing 0.5% bovine serum albumin (Fraction V, a product of Armour Co.). The sample of the derivative is contained in the medium at a prescribed concentration as illustrated in the Tables.
# [5] = ip, intraperitoneal injection, read-out: LD50 i.p.
# [6] = intravenous injection, read-out: LD50 i.v.
# [7] = oral route, read-out: LD50 p.o.
SMILES,"Mean latency, 1st retention trial [1]","Mean latency, 4th retention trial ([1]; **P < 0.01)","Mean latency, 2nd retention trial ([1]; *P < 0.05)","Mean latency, 3rd retention trial ([1]; *P < 0.05)",NGF content after 48 hr. (NGF),NGF content after 7 days (NGF),LD50 (Acute toxicity (LD50); [5]),LD50 (Acute toxicity (LD50); [6]),LD50 (Acute toxicity (LD50); [7]),Animals with more than 150 sec of latency ([2]; rats operated with kainic acid),"Mean latency ([2]; rats operated with kainic acid, *P < 0.01 vs control)",Animals with more than 150 sec of latency ([2]; sham-operated rats),Mean latency ([2]; sham-operated rats),"fold induction at 100 µM ([3]; read-out: Ratio of NGF increase, Table 3, 0.10 mM, 24 hours, mean ± SE of four determinations)","fold induction at 250 µM ([3]; read-out: Ratio of NGF increase, Table 3, 0.25 mM, 24 hours, mean ± SE of four determinations)",fold induction at 30 µM [4],fold induction at 100 µM [4]
"CCCc1ccc2oc(=O)oc2c1 [R = --CO--, R1 = H, R2 = n-Propyl]",46 ± 13,284 ± 15,167 ± 31,236 ± 28,1.66 ± 0.23 pg/mg wet tissue of frontal co,2.23 ± 0.39 pg/mg wet tissue of frontal co,> 1000 mg/kg,> 250 mg/kg,> 2500 mg/kg,4 in 10 animals,152 ± 29 s,10 in 10 animals,291 ± 7 s,,,,
"CCc1ccc(O)c(O)c1 [R = Two H, R1 = H, R2 = Ethyl, 4-ethylcatechol]",,,,,1.96 ± 0.42 pg/mg wet tissue of frontal co,1.73 ± 0.39 pg/mg wet tissue of frontal co,> 300 mg/kg,> 75 mg/kg,> 1000 mg/kg,,,,,55.2 ± 3.24,64.7 ± 4.26,10 ± 0.97,12.1 ± 1.09

# — patent US5214034A, “Catechol derivatives, and preventive and remedial preparations for regressive disorders in the central nervous system containing the same” (priority 1986, dated 1993)
